Legend:
Assay in all cases: KINOMEscan competition binding
Details in all cases: compound 10.0 µM
AURKA (human) = AURKA (human) (UniProt O14965)
CDK17 (human) = CDK17 (human) (UniProt Q00537)
CDK19 (human) = CDK19 (human) (UniProt Q9BWU1)
CDK5 (human) = CDK5 (human) (UniProt Q00535)
CDKL3 (human) = CDKL3 (human) (UniProt Q8IVW4)
CHEK1 (human) = CHEK1 (human) (UniProt O14757)
CLK4 (human) = CLK4 (human) (UniProt Q9HAZ1)
CaMK1 (human) = CaMK1 (human) (UniProt Q14012)
EPHA1 (human) = EPHA1 (human) (UniProt P21709)
Sequence of EPHA1 (human) (P21709 whole entry, looked up): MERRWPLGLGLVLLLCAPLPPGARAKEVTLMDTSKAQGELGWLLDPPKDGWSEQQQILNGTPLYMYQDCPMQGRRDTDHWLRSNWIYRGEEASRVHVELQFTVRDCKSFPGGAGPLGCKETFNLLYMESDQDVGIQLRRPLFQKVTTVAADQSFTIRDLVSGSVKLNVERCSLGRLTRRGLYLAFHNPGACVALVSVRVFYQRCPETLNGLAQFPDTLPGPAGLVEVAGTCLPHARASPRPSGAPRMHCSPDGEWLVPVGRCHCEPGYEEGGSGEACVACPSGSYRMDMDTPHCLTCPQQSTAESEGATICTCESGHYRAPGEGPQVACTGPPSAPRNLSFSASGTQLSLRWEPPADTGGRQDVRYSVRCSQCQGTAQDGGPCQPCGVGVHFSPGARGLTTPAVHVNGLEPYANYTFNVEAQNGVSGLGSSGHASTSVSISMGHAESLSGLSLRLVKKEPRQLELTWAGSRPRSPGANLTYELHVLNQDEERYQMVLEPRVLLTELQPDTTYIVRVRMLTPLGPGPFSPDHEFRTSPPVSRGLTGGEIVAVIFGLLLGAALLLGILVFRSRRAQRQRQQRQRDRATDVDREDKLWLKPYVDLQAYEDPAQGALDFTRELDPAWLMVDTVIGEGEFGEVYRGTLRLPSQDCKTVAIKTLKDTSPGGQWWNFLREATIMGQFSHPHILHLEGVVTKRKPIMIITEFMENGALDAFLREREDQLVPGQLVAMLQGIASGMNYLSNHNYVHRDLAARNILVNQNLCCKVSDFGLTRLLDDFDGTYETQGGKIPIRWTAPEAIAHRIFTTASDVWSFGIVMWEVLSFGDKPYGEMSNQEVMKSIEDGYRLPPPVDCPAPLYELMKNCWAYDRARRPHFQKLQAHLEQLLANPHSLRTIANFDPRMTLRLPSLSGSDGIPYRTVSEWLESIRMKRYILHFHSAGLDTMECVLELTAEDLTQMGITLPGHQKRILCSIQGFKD

EPHA7 (human) = EPHA7 (human) (UniProt Q15375)
Sequence of EPHA7 (human) (Q15375 whole entry, looked up): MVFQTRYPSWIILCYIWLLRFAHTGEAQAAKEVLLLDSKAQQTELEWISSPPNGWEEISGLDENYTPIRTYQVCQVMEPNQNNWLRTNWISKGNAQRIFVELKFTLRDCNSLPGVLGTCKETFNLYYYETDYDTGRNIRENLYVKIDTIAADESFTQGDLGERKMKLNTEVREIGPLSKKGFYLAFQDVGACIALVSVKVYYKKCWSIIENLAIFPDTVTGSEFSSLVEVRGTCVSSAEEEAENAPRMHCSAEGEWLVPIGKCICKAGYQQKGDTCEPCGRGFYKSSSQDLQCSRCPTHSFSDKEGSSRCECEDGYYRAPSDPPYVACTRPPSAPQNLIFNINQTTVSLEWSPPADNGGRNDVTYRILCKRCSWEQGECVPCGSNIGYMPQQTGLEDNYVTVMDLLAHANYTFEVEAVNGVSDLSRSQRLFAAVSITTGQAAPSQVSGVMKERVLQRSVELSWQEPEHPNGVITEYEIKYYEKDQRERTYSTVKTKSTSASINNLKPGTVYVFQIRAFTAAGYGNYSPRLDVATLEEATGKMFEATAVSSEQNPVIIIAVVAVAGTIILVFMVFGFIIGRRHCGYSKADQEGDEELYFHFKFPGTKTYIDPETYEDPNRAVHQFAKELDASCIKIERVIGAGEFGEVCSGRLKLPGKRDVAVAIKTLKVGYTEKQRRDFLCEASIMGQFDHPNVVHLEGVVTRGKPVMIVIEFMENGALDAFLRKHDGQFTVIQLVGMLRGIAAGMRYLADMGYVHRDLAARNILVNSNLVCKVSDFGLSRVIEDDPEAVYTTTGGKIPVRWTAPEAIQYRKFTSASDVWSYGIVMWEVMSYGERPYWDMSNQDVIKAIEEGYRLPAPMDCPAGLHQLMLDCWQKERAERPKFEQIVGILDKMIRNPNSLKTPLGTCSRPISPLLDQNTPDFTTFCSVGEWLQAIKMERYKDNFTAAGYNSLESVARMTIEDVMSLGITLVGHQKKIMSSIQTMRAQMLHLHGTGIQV

FLT1 (human) = FLT1 (human) (UniProt P17948)
FLT4 (human) = FLT4 (human) (UniProt P35916)
GRK4 (human) = GRK4 (human) (UniProt P32298)
HCK (human) = HCK (human) (UniProt P08631)
HIPK1 (human) = HIPK1 (human) (UniProt Q86Z02)
HIPK2 (human) = HIPK2 (human) (UniProt Q9H2X6)
LTK (human) = LTK (human) (UniProt P29376)
MAP3K11 (human) = MAP3K11 (human) (UniProt Q16584)
MAP3K15 (human) = MAP3K15 (human) (UniProt Q6ZN16)
MUSK (human) = MUSK (human) (UniProt O15146)
Sequence of MUSK (human) (O15146 whole entry, looked up): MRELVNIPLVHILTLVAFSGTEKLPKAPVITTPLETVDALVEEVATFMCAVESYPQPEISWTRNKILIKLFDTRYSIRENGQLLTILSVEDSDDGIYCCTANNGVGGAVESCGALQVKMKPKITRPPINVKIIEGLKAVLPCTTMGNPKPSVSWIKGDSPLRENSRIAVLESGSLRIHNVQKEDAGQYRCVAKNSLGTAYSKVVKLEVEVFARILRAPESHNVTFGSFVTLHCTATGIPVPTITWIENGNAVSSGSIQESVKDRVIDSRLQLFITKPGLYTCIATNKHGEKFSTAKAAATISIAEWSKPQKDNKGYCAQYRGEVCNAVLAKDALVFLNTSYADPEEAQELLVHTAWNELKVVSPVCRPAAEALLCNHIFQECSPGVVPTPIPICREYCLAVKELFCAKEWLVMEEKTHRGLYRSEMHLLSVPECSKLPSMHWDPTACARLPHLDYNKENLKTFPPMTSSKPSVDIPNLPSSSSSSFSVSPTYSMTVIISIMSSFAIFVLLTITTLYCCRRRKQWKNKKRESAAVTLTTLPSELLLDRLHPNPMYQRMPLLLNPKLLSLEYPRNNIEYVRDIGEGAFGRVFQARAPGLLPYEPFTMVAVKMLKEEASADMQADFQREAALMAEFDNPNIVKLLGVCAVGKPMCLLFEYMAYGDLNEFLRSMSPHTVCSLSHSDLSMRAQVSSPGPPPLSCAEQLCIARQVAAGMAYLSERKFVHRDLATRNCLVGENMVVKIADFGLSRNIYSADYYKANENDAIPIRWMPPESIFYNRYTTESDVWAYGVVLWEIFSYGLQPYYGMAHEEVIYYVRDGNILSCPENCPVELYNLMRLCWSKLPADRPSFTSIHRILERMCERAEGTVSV

MYLK (human) = MYLK (human) (UniProt Q15746)
MYO3A (human) = MYO3A (human) (UniProt Q8NEV4)
PAK2 (human) = PAK2 (human) (UniProt Q13177)
PIK3C2B (human) = PIK3C2B (human) (UniProt O00750)
PKMYT1 (human) = PKMYT1 (human) (UniProt Q99640)
Sequence of PKMYT1 (human) (Q99640 whole entry, looked up): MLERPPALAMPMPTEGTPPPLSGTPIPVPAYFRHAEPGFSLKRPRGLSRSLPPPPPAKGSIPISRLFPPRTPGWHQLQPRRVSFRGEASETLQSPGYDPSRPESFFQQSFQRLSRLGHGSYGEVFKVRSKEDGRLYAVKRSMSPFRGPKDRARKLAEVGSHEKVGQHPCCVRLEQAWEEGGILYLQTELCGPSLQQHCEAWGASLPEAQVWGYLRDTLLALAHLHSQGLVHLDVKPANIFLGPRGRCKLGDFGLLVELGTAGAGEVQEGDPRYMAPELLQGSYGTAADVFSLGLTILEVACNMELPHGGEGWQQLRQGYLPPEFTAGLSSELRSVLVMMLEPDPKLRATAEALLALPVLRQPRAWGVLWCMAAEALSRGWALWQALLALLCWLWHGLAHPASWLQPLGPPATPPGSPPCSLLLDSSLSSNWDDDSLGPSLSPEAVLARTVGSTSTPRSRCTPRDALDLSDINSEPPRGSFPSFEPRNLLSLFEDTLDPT

PLK3 (human) = PLK3 (human) (UniProt Q9H4B4)
RET (human) = RET (human) (UniProt P07949)
RIPK1 (human) = RIPK1 (human) (UniProt Q13546)
RPS6KA1 KD2 (human) = RPS6KA1 KD2 (human) (UniProt Q15418)
SIK3 (human) = SIK3 (human) (UniProt Q9Y2K2)
SRPK2 (human) = SRPK2 (human) (UniProt P78362)
STK24 (human) = STK24 (human) (UniProt Q9Y6E0)
STK35 (human) = STK35 (human) (UniProt Q8TDR2)
SYK (human) = SYK (human) (UniProt P43405)
TBK1 (human) = TBK1 (human) (UniProt Q9UHD2)
TGFBR2 (human) = TGFBR2 (human) (UniProt P37173)
TSSK1B (human) = TSSK1B (human) (UniProt Q9BXA7)

Sequence of AURKA (human) (O14965 whole entry, looked up): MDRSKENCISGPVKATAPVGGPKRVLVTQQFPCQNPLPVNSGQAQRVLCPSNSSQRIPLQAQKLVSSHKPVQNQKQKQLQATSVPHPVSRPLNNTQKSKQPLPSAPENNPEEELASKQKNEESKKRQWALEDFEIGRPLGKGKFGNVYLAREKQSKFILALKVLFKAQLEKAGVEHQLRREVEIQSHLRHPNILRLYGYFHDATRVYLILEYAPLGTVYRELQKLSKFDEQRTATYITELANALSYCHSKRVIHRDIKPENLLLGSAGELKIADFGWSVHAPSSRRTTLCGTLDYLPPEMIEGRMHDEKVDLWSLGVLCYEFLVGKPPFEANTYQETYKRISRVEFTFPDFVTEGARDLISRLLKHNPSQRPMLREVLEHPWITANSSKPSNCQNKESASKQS
Sequence of CHEK1 (human) (O14757 whole entry, looked up): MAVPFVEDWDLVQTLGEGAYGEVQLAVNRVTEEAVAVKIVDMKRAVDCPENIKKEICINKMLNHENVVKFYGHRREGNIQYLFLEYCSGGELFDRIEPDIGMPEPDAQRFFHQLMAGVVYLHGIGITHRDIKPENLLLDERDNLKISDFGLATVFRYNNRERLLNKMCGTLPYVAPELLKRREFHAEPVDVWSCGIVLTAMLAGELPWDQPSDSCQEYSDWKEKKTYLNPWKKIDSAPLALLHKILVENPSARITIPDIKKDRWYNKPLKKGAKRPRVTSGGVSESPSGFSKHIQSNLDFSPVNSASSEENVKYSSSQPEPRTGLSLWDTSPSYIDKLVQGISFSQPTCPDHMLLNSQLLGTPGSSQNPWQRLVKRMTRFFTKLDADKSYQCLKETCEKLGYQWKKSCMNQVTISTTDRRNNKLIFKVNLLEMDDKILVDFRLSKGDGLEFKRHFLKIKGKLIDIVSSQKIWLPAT
Sequence of CDK19 (human) (Q9BWU1 whole entry, looked up): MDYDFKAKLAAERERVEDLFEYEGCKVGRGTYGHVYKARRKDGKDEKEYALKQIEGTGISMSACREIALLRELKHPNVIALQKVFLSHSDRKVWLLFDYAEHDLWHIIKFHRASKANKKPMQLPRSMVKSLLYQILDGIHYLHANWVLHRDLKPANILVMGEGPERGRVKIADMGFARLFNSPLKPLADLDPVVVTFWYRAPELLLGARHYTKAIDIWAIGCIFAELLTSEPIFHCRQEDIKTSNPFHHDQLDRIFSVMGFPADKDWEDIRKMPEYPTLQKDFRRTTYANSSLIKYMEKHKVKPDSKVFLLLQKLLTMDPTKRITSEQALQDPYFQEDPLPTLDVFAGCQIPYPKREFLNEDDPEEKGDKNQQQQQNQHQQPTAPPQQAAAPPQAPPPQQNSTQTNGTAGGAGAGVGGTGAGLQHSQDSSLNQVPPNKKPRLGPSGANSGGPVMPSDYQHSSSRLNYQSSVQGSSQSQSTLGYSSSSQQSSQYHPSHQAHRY
Sequence of CDK5 (human) (Q00535 whole entry, looked up): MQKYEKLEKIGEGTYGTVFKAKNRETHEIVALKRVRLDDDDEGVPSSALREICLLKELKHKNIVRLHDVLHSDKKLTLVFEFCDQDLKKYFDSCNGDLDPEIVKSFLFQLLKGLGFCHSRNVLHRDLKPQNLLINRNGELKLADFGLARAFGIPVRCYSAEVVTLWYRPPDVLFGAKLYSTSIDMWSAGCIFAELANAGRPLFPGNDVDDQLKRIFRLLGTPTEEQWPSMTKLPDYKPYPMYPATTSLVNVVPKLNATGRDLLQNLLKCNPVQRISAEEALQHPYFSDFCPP

| kinase still bound, per cent of control (AURKA (human)) | kinase still bound, per cent of control (CDK17 (human)) | kinase still bound, per cent of control (CDK19 (human)) | kinase still bound, per cent of control (CDK5 (human)) | kinase still bound, per cent of control (CHEK1 (human)) | kinase still bound, per cent of control (CLK4 (human)) | kinase still bound, per cent of control (CaMK1 (human)) | kinase still bound, per cent of control (EPHA1 (human)) | kinase still bound, per cent of control (EPHA7 (human)) | kinase still bound, per cent of control (FLT1 (human)) | kinase still bound, per cent of control (FLT4 (human)) | kinase still bound, per cent of control (HCK (human)) | kinase still bound, per cent of control (LTK (human)) | kinase still bound, per cent of control (MAP3K11 (human)) | kinase still bound, per cent of control (MUSK (human)) | kinase still bound, per cent of control (MYLK (human)) | kinase still bound, per cent of control (MYO3A (human)) | kinase still bound, per cent of control (PAK2 (human)) | kinase still bound, per cent of control (PKMYT1 (human)) | kinase still bound, per cent of control (PLK3 (human)) | SMILES | also measured |
| --- | --- | --- | --- | --- | --- | --- | --- | --- | --- | --- | --- | --- | --- | --- | --- | --- | --- | --- | --- | --- | --- |
| 100% | 100% | 100% | 100% | 100% | 100% | 100% | 100% | 100% | 100% | 100% | 1.4% | 100% | 100% | 100% | 100% | 100% | 100% | 100% | 100% | Cc1cn(-c2cc(C(=O)Nc3ccc(C)c(NC(=O)c4ccno4)c3)cc(C(F)(F)F)c2)cn1 | kinase still bound, per cent of control (CDKL3 (human)): 100%; kinase still bound, per cent of control (GRK4 (human)): 100%; kinase still bound, per cent of control (HIPK1 (human)): 100%; kinase still bound, per cent of control (HIPK2 (human)): 100%; kinase still bound, per cent of control (MAP3K15 (human)): 100%; kinase still bound, per cent of control (PIK3C2B (human)): 100%; kinase still bound, per cent of control (RET (human)): 100%; kinase still bound, per cent of control (RIPK1 (human)): 100%; kinase still bound, per cent of control (RPS6KA1 KD2 (human)): 100%; kinase still bound, per cent of control (SIK3 (human)): 100%; kinase still bound, per cent of control (SRPK2 (human)): 100%; kinase still bound, per cent of control (STK24 (human)): 100%; kinase still bound, per cent of control (STK35 (human)): 100%; kinase still bound, per cent of control (SYK (human)): 100%; kinase still bound, per cent of control (TBK1 (human)): 100%; kinase still bound, per cent of control (TGFBR2 (human)): 100%; kinase still bound, per cent of control (TSSK1B (human)): 100% |
| 100% | 100% | 100% | 100% | 100% | 100% | 100% | 0.75% | 0.6% | 1.2% | 2% | 0.2% | 2.7% | 100% | 20% | 100% | 100% | 100% | 100% | 100% | COc1ccc(N(C(=O)Oc2cc(C(=O)Nc3cccc(C(F)(F)F)c3)ccc2C)c2ccnc(Nc3ccc(N4CCN(C)CC4)cc3)n2)c(OC)c1 | kinase still bound, per cent of control (RET (human)): 0.35%; kinase still bound, per cent of control (RIPK1 (human)): 100%; kinase still bound, per cent of control (RPS6KA1 KD2 (human)): 100%; kinase still bound, per cent of control (SRPK2 (human)): 100%; kinase still bound, per cent of control (STK24 (human)): 100%; kinase still bound, per cent of control (SYK (human)): 4%; kinase still bound, per cent of control (TGFBR2 (human)): 100%; kinase still bound, per cent of control (TSSK1B (human)): 100% |
| 100% | 100% | 100% | 100% | 100% | 33% | 100% | 100% | 100% | 100% | 100% | 100% | 34% | 100% | 0.2% | 100% | 100% | 100% | 100% | 100% | COc1cc(C)c(Sc2cnc(NC(=O)c3ccc(CNC(C)C(C)C)cc3)s2)cc1C(=O)N1CCN(C(C)=O)CC1 (configuration not stated) | kinase still bound, per cent of control (HIPK1 (human)): 100%; kinase still bound, per cent of control (PIK3C2B (human)): 100%; kinase still bound, per cent of control (RET (human)): 100%; kinase still bound, per cent of control (RIPK1 (human)): 100%; kinase still bound, per cent of control (RPS6KA1 KD2 (human)): 100%; kinase still bound, per cent of control (SRPK2 (human)): 100%; kinase still bound, per cent of control (STK24 (human)): 33%; kinase still bound, per cent of control (STK35 (human)): 100%; kinase still bound, per cent of control (SYK (human)): 100%; kinase still bound, per cent of control (TGFBR2 (human)): 100%; kinase still bound, per cent of control (TSSK1B (human)): 100% |
| 100% | 100% | 100% | 100% | 100% | 5.5% | 100% | 15% | 15% | 100% | 100% | 24% | 0.6% | 100% | 100% | 5% | 15% | 100% | 100% | 100% | COc1cc(N2CCC(C(N)=O)CC2)ccc1Nc1nc(N)c(Cl)c(Nc2ccccc2S(=O)(=O)C(C)C)n1 | kinase still bound, per cent of control (HIPK1 (human)): 100%; kinase still bound, per cent of control (PIK3C2B (human)): 100%; kinase still bound, per cent of control (RET (human)): 100%; kinase still bound, per cent of control (RIPK1 (human)): 100%; kinase still bound, per cent of control (RPS6KA1 KD2 (human)): 30%; kinase still bound, per cent of control (SRPK2 (human)): 100%; kinase still bound, per cent of control (STK24 (human)): 100%; kinase still bound, per cent of control (STK35 (human)): 100%; kinase still bound, per cent of control (SYK (human)): 100%; kinase still bound, per cent of control (TGFBR2 (human)): 100%; kinase still bound, per cent of control (TSSK1B (human)): 100% |

From the kinase profiling compilation of Christmann-Franck et al. (2016)
